The source of these data is PMC4760439, “Glicentin‐related pancreatic polypeptide inhibits glucose‐stimulated insulin secretion from the isolated pancreas of adult male rats” (Physiological Reports, 2015).

“Also recorded” adds a separate entry of the source.

One experiment has as its system perfused rat liver. Nature of the experiment: Isolated perfused rat liver: glucose output, lactate output, portal pressure. Details: species or system Male Sprague‐Dawley rat. The settings on record: for Lactate output (effect of peptide vs control) / Portal pressure (effect of peptide vs control) / Glucose output, epinephrine‐stimulated (effect of peptide vs control): 2.3 or 230 pmol g^−1 min^−1 (n = 5 and n = 3), epinephrine 100 pmol g^−1 min^−1, 30–60 min; for Glucose output, epinephrine‐stimulated (effect of peptide vs control): 37°C. As to the method: (§1) All studies were performed under approval of the University of Auckland Animal Ethics Committee and were consistent with the ARRIVE guidelines (Kilkenny et al. 2012). Male Sprague‐Dawley rats (220–300 g) were obtained from a breeding colony in the Integrated Physiology Unit, School of Biological Sciences at the University of Auckland. Animals were housed in standard environmental conditions under a 12‐hour light/dark cycle and a temperature of 20 ± 1°C. They were maintained on Teklad TB 2018 (Harlan, UK) rat chow and tap water ad libitum.
Under general anesthesia (isoflurane 2–5%; 2 L min^−1 O2 via nasal cone), nonfasted rats underwent laparotomy between 8:00 and 9:00 AM on the experimental day. The liver was removed and quickly connected to a custom‐made, temperature‐controlled, organ perfusion system, whereby it was perfused (in nonrecirculating mode) in a manner similar to that reported previously (Englisch et al. 2000; Whiting et al. 2013). Livers were perfused at a rate of 2 mL g^−1 min^−1 with perfusion media containing final concentrations (in mmol L^−1): NaCl, 128; NaHCO3, 23.9; KCl, 6.0; CaCl2, 2.4; MgSO4, 1.18; D‐glucose, 5; 3‐(‐N‐morpholino)propane sulfonate, 1.29; with fatty‐acid‐free BSA, 0.5% (w/v) at pH 7.4 gassed with O2:CO2 95:5% (v/v) at 37°C. Each liver was stabilized for 40 min: thereafter, hormone‐containing solutions or vehicle (buffer only) was delivered via a side‐arm infusion. Hormones were also investigated with regard to their ability to attenuate epinephrine‐stimulated hepatic glucose output (Epinephrine, Sigma‐Aldrich, St. Louis, MO). Epinephrine was added 30 min after the addition of hormones was commenced.
(§2) Measurement of organ perfusion parameters
(§3) Glucose and lactate concentrations were measured in both organ preparations using a YSI2300 Stat glucose and lactate analyzer (Yellow Springs, Ohio). Portal pressure was measured in isolated‐perfused liver preparations in mmH2O via a T‐tube located 10 cm upstream from the preparation.
(§4) Maximum pancreatic first‐phase insulin secretion in the presence of hormone infusion was contrasted with corresponding control values by unpaired Welch's t‐tests for preplanned comparisons, to allow for unequal variance between groups. Linear mixed‐effects models were fitted by restricted maximum likelihood (LME‐REML) to data obtained from each indicated phase of isolated perfused–organs studies, using S‐PLUS version 8.2 (TIBCO, Spotfire). Calculated P‐values <0.05 are presented in the article and reflect the likelihood ratio between two models, the effect in question (treatment, time, or treatment:time) against the model without the effect in question. Insulin secreted from isolated islets was expressed as a percentage of insulin content and compared using one‐way ANOVA (GraphPad Prism version 6.0: GraphPad Software Inc., San Diego, CA). Cyclic AMP data have been normalized to the response obtained to forskolin and fitted to obtain concentration–response curves using a three‐parameter logistic equation (GraphPad Prism version 6.0: GraphPad Software Inc., San Diego, CA): pEC50 values were obtained from the concentration–response curves and compared using one‐way ANOVA. All data are presented as mean ± SEM of three to four independent experiments.
Figure 2 Effect of rGRPP and rGRPP‐LP on glucose output, lactate output, and portal pressure in the isolated perfused rat liver. Livers from Sprague‐Dawley rats were isolated and perfused with rGRPP (left panels: 2.3 or 230 pmol g^−1 min^−1, n = 5 and n = 3, respectively), rGRPP‐LP (right panels: 2.3 or 230 pmol g^−1 min^−1, n = 5 and n = 3), or vehicle (all panels: control, n = 5). Livers were perfused with hormones or vehicle from 0 to 60 min with 0–30 min as the basal period.

Experiment [1] deals with T1, human glucagon receptor (hGL‐R) (Homo sapiens, UniProt P47871).
T1 construct: expressed in transfected cells; host or cells: Cos 7 cells
T1 sequence (P47871 26-477): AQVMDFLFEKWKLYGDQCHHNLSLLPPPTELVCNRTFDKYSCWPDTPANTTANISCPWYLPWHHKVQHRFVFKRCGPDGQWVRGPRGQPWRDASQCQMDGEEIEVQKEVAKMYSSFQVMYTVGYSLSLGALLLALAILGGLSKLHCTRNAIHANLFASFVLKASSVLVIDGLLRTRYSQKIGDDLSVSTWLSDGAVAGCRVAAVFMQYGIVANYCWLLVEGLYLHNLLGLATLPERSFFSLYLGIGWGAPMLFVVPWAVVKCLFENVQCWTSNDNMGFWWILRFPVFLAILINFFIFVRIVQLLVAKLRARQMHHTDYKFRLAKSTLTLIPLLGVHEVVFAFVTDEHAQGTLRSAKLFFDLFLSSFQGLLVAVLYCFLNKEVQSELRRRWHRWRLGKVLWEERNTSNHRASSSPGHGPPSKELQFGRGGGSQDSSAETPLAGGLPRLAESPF
Nature of the experiment: cAMP stimulation in transfected Cos 7 cells, hGL‐R. It counts as cell-based. The settings on record: Cos 7, 37°C, 10 min, ALPHA‐screen. The method, then: (§5) Transfection of Cos 7 cells
(§6) Cos 7 cells were maintained and subcultured as previously described (Bailey and Hay 2006) and plated at a density of 15,000 cells per well into 96‐well plates 1 day prior to transfection. […] Cyclic AMP assays were performed 48 h after transfection (Bailey and Hay 2006). The human GRPP was obtained from Bachem (Bubendorf, Switzerland).
(§7) Cyclic AMP stimulation of transfected Cos 7 cells
(§8) Transfected cells were serum‐deprived in DMEM containing 1 mmol L^−1 IBMX and 0.1% (w/v) bovine serum albumin (BSA) for 30 min. […] Plates were incubated at 37°C for 10 min. […] Media were then aspirated from the wells and reactions terminated by addition of ice‐cold absolute ethanol. Ethanol was then evaporated to dryness and cell extracts re‐suspended in 45 μL cAMP assay buffer: cAMP concentrations were determined using ALPHA‐screen assay kits (Perkin Elmer, Massachusetts) as previously described (Gingell et al. 2010).
as §4, with “Cyclic AMP data have been normalized to the response obtained to forskolin and fitted to obtain concentration–response curves using a three‐parameter logistic equation (GraphPad Prism version 6.0: GraphPad Software Inc., San Diego, CA): pEC50 values were obtained from the concentration–response curves and compared using one‐way ANOVA. All data are presented as mean ± SEM of three to four independent experiments.” left out

In experiment [2] the target is T2, human GLP‐1 receptor (hGLP‐1R) (Homo sapiens, UniProt P43220).
T2 construct: expressed in transfected cells; host or cells: Cos 7 cells
T2 sequence (P43220 24-463): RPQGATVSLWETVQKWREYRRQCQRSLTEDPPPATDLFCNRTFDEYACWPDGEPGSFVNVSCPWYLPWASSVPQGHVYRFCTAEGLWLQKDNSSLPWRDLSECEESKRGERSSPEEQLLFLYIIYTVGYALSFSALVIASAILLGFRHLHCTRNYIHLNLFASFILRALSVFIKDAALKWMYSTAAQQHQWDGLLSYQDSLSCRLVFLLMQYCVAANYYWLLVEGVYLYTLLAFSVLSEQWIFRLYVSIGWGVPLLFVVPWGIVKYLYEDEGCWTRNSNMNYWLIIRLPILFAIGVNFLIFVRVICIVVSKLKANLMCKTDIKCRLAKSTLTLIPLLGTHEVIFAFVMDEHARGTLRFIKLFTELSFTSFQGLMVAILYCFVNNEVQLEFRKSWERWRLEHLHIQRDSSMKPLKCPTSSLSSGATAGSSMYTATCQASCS
Nature of the experiment: cAMP stimulation in transfected Cos 7 cells, hGLP‐1R. The settings on record: Cos 7, 37°C, 10 min, ALPHA‐screen. The class given is cell-based. As to the method:
as §5, §6, §7, §8
(§9) Maximum pancreatic first‐phase insulin secretion in the presence of hormone infusion was contrasted with corresponding control values by unpaired Welch's t‐tests for preplanned comparisons, to allow for unequal variance between groups. […] Calculated P‐values <0.05 are presented in the article and reflect the likelihood ratio between two models, the effect in question (treatment, time, or treatment:time) against the model without the effect in question. […]

Experiment [3] has as its system isolated perfused rat pancreas. Nature of the experiment: Isolated perfused rat pancreas: insulin secretion (GSIS), lactate. Also on record: species or system Male Sprague‐Dawley rat. The settings on record: for Insulin secretion at 5 mmol L^−1 glucose (vs control): first 20 min; for Insulin secretion at 5 mmol L^−1 glucose (vs control) / Glucose‐stimulated insulin secretion (GSIS) at 20 mmol L^−1 glucose (vs control): rGRPP and rGRPP‐LP 3 or 30 pmol min^−1, hGLP‐1 7–36 30 pmol min^−1, n = 5/group, insulin by ELISA, 37°C; for Glucose‐stimulated insulin secretion (GSIS) at 20 mmol L^−1 glucose (vs control): 20–40 min; for Glucose‐stimulated insulin secretion (GSIS) at 20 mmol L^−1 glucose (vs control) / First phase of GSIS (vs control) / Second phase of GSIS (vs control): 20 mmol L^−1 glucose; for First phase of GSIS (vs control): t = 22 min; for Second phase of GSIS (vs control): t = 26 min to t = 40. The method, then:
as §1
Isolated pancreas perfusion
General aspects of the preparation for the isolated pancreas perfusions were the same as those for the liver perfusion studies (above). Particular aspects of the preparation for the pancreas perfusion studies were as follows. After laparotomy, the pancreas and duodenum were removed en bloc and perfused (in nonrecirculating mode) consistent with our previous report (Buchanan et al. 2001). Each pancreatic preparation was quickly connected to the custom‐made, temperature‐controlled, organ perfusion system and perfused at 3 mL min^−1 with oxygenated perfusion buffer (containing at final concentrations in mmol L^−1): NaCl, 112; NaHCO3, 29.3; KCl, 4.4; CaCl2, 2.4; MgSO4, 1.2; D‐glucose, 5.0; with BSA, 0.5% (w/v), Dextran 4% (w/v) at pH 7.4 gassed with O2:CO2 95:5% (v/v) at 37°C. […] Each pancreas was stabilized for 30 min before hormones or vehicle (buffer only) was delivered via a side‐arm infusion.
as §2, §3, §4
Figure 3 Effects of proglucagon products on insulin secretion in the isolated‐perfused rat pancreas.

Experiment [4] addresses T1, human glucagon receptor (hGL‐R). Nature of the experiment: Antagonism of glucagon‐stimulated cAMP production, hGL‐R. The class given is cell-based. The note with it: peptide preincubated 5 min. The method, then: as §5, §6, §7, §8, §9
Experiment [5] addresses T2, human GLP‐1 receptor (hGLP‐1R). Nature of the experiment: Antagonism of GLP‐1 7–36‐stimulated cAMP production, hGLP‐1R. The note with it: peptide preincubated 5 min. The class given is cell-based. As to the method: as §5, §6, §7, §8, §9
Background: Changes in cAMP serve as a functional read-out for many G protein-coupled receptors.

A further experiment relates to canine pancreas. The note with it: cited from earlier work. An excerpt: However, we know of only one study reporting the effects of GRPP on GSIS. […] The precise experimental conditions such as amount of glucose and experimental model used may have influences on the different outcomes; however, the reason for the opposing actions of GRPP between these ...
The mark [6] stands for this setting: 100 pmol g^−1 min^−1, 30–60 min, all groups.

Turning to `CNC[C@H](O)c1ccc(O)c(O)c1` [epinephrine, reference compound], in the experiment with perfused rat liver (setting [6]), the “Glucose output, effect of epinephrine” value is “evoked an increase in glucose output in all groups”; the “Lactate release, effect of epinephrine” value is “expected elevation of lactate release”; the “Portal pressure, effect of epinephrine” value was “expected elevation of lactate release and portal pressure”.
On to “HAPQDTEENARSFPASQTEPLEDPDQINED [rGRPP, rat glicentin‐related pancreatic polypeptide, 30 amino acid Gcg‐derived peptide, synthesized by Fmoc solid‐phase peptide synthesis]”, for which, in the experiment on perfused rat liver, the “Lactate output (effect of peptide vs control)” value is given as “Neither dose of rGRPP nor rGRPP‐LP modified these parameters compared with control values”; the “Portal pressure (effect of peptide vs control)” value is reported as “Neither dose of rGRPP nor rGRPP‐LP modified these parameters compared with control values”; the “Glucose output, epinephrine‐stimulated (effect of peptide vs control)” value (“Glucose output … (effect of peptide vs control)” for short) is on record as “not modified by rGRPP or GRPP‐LP; also recorded: Neither dose of rGRPP nor rGRPP‐LP modified these parameters compared with control values”. Moreover, the “Stimulation of cAMP production at hGL‐R” value in experiment [1] is recorded as “neither rGRPP nor rGRPP‐LP stimulated cAMP production at either receptor”. Further, in experiment [2], the “Stimulation of cAMP production at hGLP‐1R” value is reported as “neither rGRPP nor rGRPP‐LP stimulated cAMP production at either receptor”. Also, in experiment [3], the “Insulin secretion at 5 mmol L^−1 glucose (vs control)” value is reported as “No significant difference in insulin secretion”, the “Glucose‐stimulated insulin secretion (GSIS) at 20 mmol L^−1 glucose (vs control)” value is “potent inhibition of glucose‐stimulated insulin secretion (GSIS) from the rat pancreas; also recorded: inhibited GSIS”, the “First phase of GSIS (vs control)” value is “inhibited the initial first phase of GSIS in the isolated rat pancreas” and the “Second phase of GSIS (vs control)” value is “ongoing suppression of insulin secretion throughout the second phase”. Besides, the “Antagonism of glucagon‐stimulated cAMP production” value in experiment [4] is “nor did they antagonize glucagon‐ or GLP‐1‐stimulated cAMP‐production at either receptor; also recorded: no shifts in the GLP‐1 7–36 or glucagon concentration–response curves”. Moreover, the “Antagonism of GLP‐1‐stimulated cAMP production” value in experiment [5] is on record as “nor did they antagonize glucagon‐ or GLP‐1‐stimulated cAMP‐production at either receptor; also recorded: no shifts in the GLP‐1 7–36 or glucagon concentration–response curves”.
Turning to “HAPQDTEENARSFPASQTEPLEDPNQINE [rGRPP‐LP, rat GRPP‐like peptide]”, in the experiment with perfused rat liver, the “Lactate output (effect of peptide vs control)” value is listed as “Neither dose of rGRPP nor rGRPP‐LP modified these parameters compared with control values”; the “Portal pressure (effect of peptide vs control)” value is on record as “Neither dose of rGRPP nor rGRPP‐LP modified these parameters compared with control values”; the “Glucose output … (effect of peptide vs control)” value is given as “Neither dose of rGRPP nor rGRPP‐LP modified these parameters compared with control values”. Further, the “Glucose output … (effect of peptide vs control)” value with perfused rat liver (listed as GRPP‐LP) is reported as “not modified by rGRPP or GRPP‐LP”. In experiment [1], the “Stimulation of cAMP production at hGL‐R” value was “neither rGRPP nor rGRPP‐LP stimulated cAMP production at either receptor”. For the same molecule, the “Stimulation of cAMP production at hGLP‐1R” value in experiment [2] is listed as “neither rGRPP nor rGRPP‐LP stimulated cAMP production at either receptor”. In experiment [3], the “Insulin secretion at 5 mmol L^−1 glucose (vs control)” value is listed as “No significant difference in insulin secretion”, the “Glucose‐stimulated insulin secretion (GSIS) at 20 mmol L^−1 glucose (vs control)” value is “potent inhibition of glucose‐stimulated insulin secretion (GSIS) from the rat pancreas; also recorded: inhibited GSIS”, the “First phase of GSIS (vs control)” value is reported as “inhibited the initial first phase of GSIS in the isolated rat pancreas” and the “Second phase of GSIS (vs control)” value is recorded as “ongoing suppression of insulin secretion throughout the second phase”. Further, the “Antagonism of glucagon‐stimulated cAMP production” value in experiment [4] is “nor did they antagonize glucagon‐ or GLP‐1‐stimulated cAMP‐production at either receptor”. The “Antagonism of GLP‐1‐stimulated cAMP production” value in experiment [5] is listed as “nor did they antagonize glucagon‐ or GLP‐1‐stimulated cAMP‐production at either receptor”.
With “human glicentin 1–16: human glicentin 1–16, literature peptide (RSLQDTEEKSRSFSAS; Glicentin; UniProt P01275 21-36, looked up, fragment)”, in the experiment on canine pancreas (local circulation preparation of the canine pancreas, ref Ohneda and Ohneda 1988), the “Plasma insulin and glucagon, canine pancreas” value is “slight increases in plasma insulin and decreases in plasma glucagon”.
Take “human glicentin 12–69: encompasses both GRPP and glucagon sequences (SFSASQADPLSDPDQMNEDKRHSQGTFTSDYSKYLDSRRAQDFVQWLMNTKRNRNNIA; Glicentin; UniProt P01275 32-89, looked up, fragment)”: the “GSIS and glucagon secretion, perfused canine pancreas” value in the experiment on canine pancreas (ref Yanaihara et al. 1985) is “enhanced GSIS and inhibited glucagon secretion in the perfused canine pancreas”.
Take “porcine GRPP: porcine GRPP, literature peptide (RSLQNTEEKSRSFPAPQTDPLDDPDQMTED; Glicentin-related polypeptide; UniProt P01274 21-50, looked up)”: the “Insulin and glucagon secretion, canine pancreas” value with canine pancreas (ref Ohneda and Ohneda 1988) is “insulin was possibly increased and glucagon decreased”.
